Literature values as cited in patent publication US20230174671A1, “COMPOSITIONS AND METHODS FOR TREATING VIRAL INFECTIONS” (BIOVISTA, INC., priority 2020, published 2023).
Structures can show the parent of a compound that is named as a salt.

Columns and labels:
SARS-CoV = details: HeLa cells expressing TMPRSS2; Kawase et al, 2012
[1] = system: human coronavirus NL63 (HCoV-NL63); details: HeLa cells expressing TMPRSS2; Kawase et al, 2012

CN(C)C(=O)COC(=O)Cc1ccc(OC(=O)c2ccc(NC(=N)N)cc2)cc1 [camostat mesylate]
block of infection by SARS-CoV (SARS-CoV): partially block infection | block of infection by human coronavirus NL63 (HCoV-NL63) [1]: partially block infection
